Columns and labels:
Format in all cases: physicochemical
[1] = Moisture measurement after storage (Karl Fischer water determination); details: for Moisture absorption (in words): storage at 40° C. and 75% RH up to 1 month
Procedure: Storage conditions were 40° C. and 75% RH. The periods of time for storage were 1 week, 2 weeks and 1 month. During these storage periods, samples were stored in opened petri dishes. After storage in this manner, the moisture and potency of each sample were measured. The moisture was measured according to REQUIREMENT FOR ANTIBIOTIC PRODUCTS OF JAPAN General Tests MOISTURE DETERMINATION II Water determination. Note that Karl Fischer formamide methanol mixture II was used as the solvent.

[2] = Potency test by liquid chromatography after storage; details: for Change of potency over storage time (in words): storage at 40° C. and 75% RH up to 1 month
Procedure: Storage conditions were 40° C. and 75% RH. The periods of time for storage were 1 week, 2 weeks and 1 month. During these storage periods, samples were stored in opened petri dishes.
After storage in this manner, the moisture and potency of each sample were measured.
A potency test was conducted by the following method. About 0.025 g of each of the type IV crystal obtained in Example 4 and type II crystal and a standard product of S-4661 was precisely measured. Each sample was dissolved in water to precisely 100 mL. 10 mL of each solution was precisely measured, to which 5 ml of internal standard solution was added. As the internal standard solution, aqueous acetaminophen solution (concentration 1/20000:1 g of acetaminophen in 20000 ml of the solution) was used. Thereafter, water was added to each solution to 50 mL. Solutions prepared from the type IV or II crystals were used as sample solutions. A solution prepared from a standard product of S-4661 was used as a standard solution. 10 μL of each of the sample solutions and the standard solution were subjected to liquid chromatography under the following conditions. For the sample solution, the ratio QT of the peak area of S-4661 to the peak area of the internal standard substance was obtained. For the standard solution, the ratio QS of the peak area of S-4661 to the peak area of the internal standard substance was obtained.
Conditions for Operation • Detector: ultraviolet absorptiometer (measurement wavelength: 240 nm) • Column: a stainless steel tube having an inner diameter of about 4.6 mm and a length of about 15 cm was filled with 5 μm of octadecylsilylated silica gel for liquid chromatography (L-column ODS). • Column temperature: a constant temperature of around 25° C. • Mobile phase: 2 mmol/L phosphate buffer pH 5.8/acetonitrile mixture (191:9) • Flow rate: Flow rate was adjusted so that the retention time of S-4661 was about 8 to 9 minutes (about 1 mL/min). • Selection of column: 10 μL of standard solution was used and the operation was conducted under the above-described conditions. A column, which elutes S-4661 and the internal standard substance in this order and has a resolution between S-4661 and the internal standard substance of at least 3, was used.
Potencies were calculated by the following expression.

[3] = Assessment of storage stability of crystals; details: for Storage stability (in words): compared to conventional type I or II crystals
Procedure: The storage stability of the thus-obtained crystal of the present invention was assessed.
Hereinafter, a result of evaluation of comparing the stability of the crystals of the present invention with that of a conventional crystal (type II crystal) is specifically shown.
The stability of type II crystal of S4661 (conventional crystal) was compared with that of the type IV crystal obtained in the above-described Example 4.

[4] = 1 month storage at 40° C. and 75% RH, opened petri dish
[5] = 1 week storage at 40° C. and 75% RH, opened petri dish
[6] = 2 weeks storage at 40° C. and 75% RH, opened petri dish

Row | Compound | Moisture [1, 4] | Moisture [1, 5] | Moisture [1, 6] | Moisture ([1]; Initial time, before storage) | Moisture level at which moisture became constant ([1]; after about two weeks at 40° C. and 75% RH) | Moisture absorption (in words) ([1]; listed as type II crystal) | Potency [2, 4] | Potency [2, 5] | Potency [2, 6] | Potency ([2]; Initial time, before storage) | Change of potency over storage time (in words) ([2]; listed as type II crystal) | Storage stability (in words) ([3]; listed as type III crystal) | Storage stability (in words) ([3]; listed as type IV crystal) | Stability relative to type II crystal (other test results, in words) ([3]; other test results) | Moisture absorption (in words) ([1]; listed as type IV crystal) | Change of potency over storage time (in words) ([2]; listed as type IV crystal)
1 | C[C@@H](O)[C@H]1C(=O)N2C(C(=O)O)=C(S[C@@H]3CN[C@H](CNS(N)(=O)=O)C3)[C@H](C)[C@H]12 [Type II, (+)-(4R,5S,6S)-6-[(1R)-1-hydroxyethyl]-4-methyl-7-oxo-3[[(3S,5S)-5-(sulfamoylaminomethyl)pyrrolidin-3-yl]thio]-1-azabicyclo[3.2.0]hept-2-ene-2-carboxylic acid] | 10.31% | 9.51% | 10.36% | 4.56% | about 10% | absorbs moisture | 826.4 µg/mg | 956.2 µg/mg | 923.0 µg/mg | 983.2 µg/mg | decreased over time |  |  |  |  | 
2 | C[C@@H](O)[C@H]1C(=O)N2C(C(=O)O)=C(S[C@@H]3CN[C@H](CNS(N)(=O)=O)C3)[C@H](C)[C@H]12 [Type III, (+)-(4R,5S,6S)-6-[(1R)-1-hydroxyethyl]-4-methyl-7-oxo-3[[(3S,5S)-5-(sulfamoylaminomethyl)pyrrolidin-3-yl]thio]-1-azabicyclo[3.2.0]hept-2-ene-2-carboxylic acid] |  |  |  |  |  |  |  |  |  |  |  | excellent storage stability as compared to conventional type I or II crystals |  |  |  | 
3 | C[C@@H](O)[C@H]1C(=O)N2C(C(=O)O)=C(S[C@@H]3CN[C@H](CNS(N)(=O)=O)C3)[C@H](C)[C@H]12 [Type IV, (+)-(4R,5S,6S)-6-[(1R)-1-hydroxyethyl]-4-methyl-7-oxo-3[[(3S,5S)-5-(sulfamoylaminomethyl)pyrrolidin-3-yl]thio]-1-azabicyclo[3.2.0]hept-2-ene-2-carboxylic acid] | 4.99% | 4.79% | 4.89% | 4.62% |  |  | 981.5 µg/mg | 990.8 µg/mg | 992.4 µg/mg | 993.3 µg/mg |  |  | more excellent storage stability | more stable than the type II crystal | absorbs substantially no moisture | no significant change

Reference: patent US9221823B2, “Crystal form of pyrrolidylthiocarbapenem derivative” (Shionogi & Co., Ltd., priority 2000, dated 2015)
